Measured values published in patent publication US10543156B2, “Shaping keratin fibres using 2-oxazolidinone compounds” (The Procter & Gamble Company, priority 2015, dated 2020).

Test: Hair straightening efficacy on hair switches, expert grading
Conditions: after 5 wash cycles; for Straightening efficacy Mean grade: 20% active agent in crosslinking composition with 100 ppm 4,5-dibromofluorescein, 100 ppm Eosin Y, water buffered at pH 10, irons at 121° C. with UV light at 380 nm, 8 passes, score on 0-10 scale (0 curly, 10 very straight)
Procedure: The hair straightening efficacy is tested for the crosslinking compositions described herein. Switches of low lift naturally curly hair are employed. These are shampooed with a Pantene clarifying shampoo to ensure the hair is in a clean state with no residues that could affect the end result. The switches are then rinsed. Excess water is removed from the hair by wringing out the switches. The switches are treated with a crosslinking composition which is pre-prepared in a dark room. The crosslinking composition comprises: active agent as listed in TABLE 2; 100 ppm 4,5-dibromofluorescein; 100 ppm Eosin Y; QSP water buffered at pH 10. These ingredients are mixed on a spinner plate for 30 mins. The crosslinking composition is stored in an amber bottle or a bottle covered in electrical tape to ensure no light access to the crosslinking composition. 0.5 g of crosslinking composition per 1 g hair is employed. The crosslinking composition is left on the hair for 30 minutes. After this time, the hair is blow dried, brushed, and is then mechanically straightened with hybrid light and heat emitting straightening irons (at 250° F. [121° C.] and emitting UV light at 380 nm) with 8 passes.
The switches are then imaged. To simulate durability, the switches are then given one wash-and-dry cycle. One wash-and-dry cycle involves shampooing with a Hairtrition shampoo (Hairtrition Color Protect sulfate-free shampoo from Zotos), rinsing and then drying in a hot box. Once dry the switches are imaged again. The switches are then given 4 further wash-and-dry cycles. Once dry the switches are imaged again. An expert grader gives the images of the switches a score on a 0-10 scale. The scale is a standard scale set as curly hair having 4-5 nodes of curls is a score of 0 and very straight hair is a 10. Thus, the switches are compared to a normal state of hair.
Using an expert grader is reliable because the grader is trained on measuring/scaling the configuration of the hair from straight to curly in a consistent way. Numeric data obtained by this method is averaged, and statistical analysis is conducted using JMP statistical software available from SAS Institute at the 87% confidence level.

CC(=O)N1CCOC1=O [N-acetyl-2-oxazolidinone]
Straightening efficacy Mean grade: 3.0

O=C1OCCN1CCO [N-(hydroxyethyl)-2-oxazolidinone]
Straightening efficacy Mean grade: 4.3 | Straightening efficacy compared with the control (in words) (statistical analysis at the 87% confidence level): significantly better straightening efficacy than the control

O=C1NCCO1 [2-oxazolidinone]
Straightening efficacy Mean grade: 3.7
